# Source: US5318984A, “Imidazoles for the treatment of atherosclerosis” (priority 1992, dated 1994)
# Molecular target: T1, Acyl-CoA: Cholesterol Acyltransferase (ACAT) (Rattus norvegicus, UniProt Q7TQM4)
# T1 construct: Microsomes were obtained by differential centrifugation; from tissue; host or cells: liver microsomes of male Sprague Dawley rats
# T1 sequence (Q7TQM4 1-524): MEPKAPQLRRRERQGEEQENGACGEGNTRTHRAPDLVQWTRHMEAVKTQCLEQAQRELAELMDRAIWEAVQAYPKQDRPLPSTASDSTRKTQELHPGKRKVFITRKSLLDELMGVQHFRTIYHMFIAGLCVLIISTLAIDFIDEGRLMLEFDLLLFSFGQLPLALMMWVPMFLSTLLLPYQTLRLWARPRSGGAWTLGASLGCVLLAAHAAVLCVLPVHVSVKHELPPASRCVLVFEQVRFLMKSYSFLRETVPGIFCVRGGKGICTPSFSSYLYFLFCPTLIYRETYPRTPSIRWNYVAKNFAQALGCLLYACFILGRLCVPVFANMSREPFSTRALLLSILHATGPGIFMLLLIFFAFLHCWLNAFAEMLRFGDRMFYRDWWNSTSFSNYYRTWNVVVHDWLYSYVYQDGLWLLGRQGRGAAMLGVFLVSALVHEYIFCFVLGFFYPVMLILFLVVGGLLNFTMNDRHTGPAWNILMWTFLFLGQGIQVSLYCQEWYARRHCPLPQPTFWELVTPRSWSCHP
# Experiment: Inhibition of Acyl-CoA: Cholesterol Acyltransferase (ACAT) in Hepatic Microsomes
# Type: biochemical, Sprague Dawley rats
# Conditions: 14C-oleoyl-CoA, pH 7.4, 37° C., read-out: In Vitro ACAT IC50
# Description: A. Assay of the Inhibition of Acyl-CoA: Cholesterol Acyltransferase (ACAT) in Hepatic Microsomes
# The ability of the compounds to inhibit ACAT, the enzyme responsible for the intracellular synthesis of cholesteryl esters, was tested as follows. Male Sprague Dawley rats weighing 150-300 g, were fed rat chow ad libitum. The animals were fasted for twenty-four hours prior to being sacrificed by decapitation. The livers were perfused in situ with 50 ml of cold 0.25M sucrose, excised, and homogenized in three volumes of 0.1M phosphate buffer, pH 7.4, that contained 0.5 mM EDTA (ethylenediaminetetraacetic acid), 1.0 mM glutathione, 0.25M sucrose and […]. Microsomes were obtained by differential centrifugation; the supernatant from an initial spin at 15,000×g for 15 minutes was centrifuged at 105,000×g for 1 hour to pellet the microsomes. The microsomes were suspended in homogenization buffer, reisolated by centrifugation, and stored at -70° C. Microsomes were used within one month of preparation.
# The control assay in a final volume of 200 μl consisted of 200 μg of microsomal protein, 75 μM ^14 C-oleoyl-CoA (10,000 dpm/nmol) in 0.1M phosphate, pH 7.4, that contained 1 mM glutathione. Compounds were added in 5 μl of DMSO (dimethyl sulfoxide) and additional controls were run with DMSO only. All components, except the oleoyl-CoA, were preincubated for 15 min. at 37° C. prior to the initiation of the reaction by the addition of oleoyl-CoA. The assay was terminated after 10 min by the addition of 4 ml of chloroform:methanol (2:1, v/v). 20,000 dpm of 3H-cholesteryl oleate and 10 μg of unlabeled cholesteryl oleate and oleic acid were added as an internal standard and carriers, respectively. After allowing 10 min. for lipid extraction, the samples were centrifuged at 1,000×g for 10 min. to separate the solvent layers. The chloroform layer containing the neutral lipids was spotted onto a Baker SI250-Pa silica gel TLC plate and the plate developed using a hexane: diethyl ether: acetic acid (170:30:1 v/v/v) mobile phase. The lipids were visualized by their interaction with iodine vapor and the cholesteryl ester spot was scraped into a scintillation vial and counted.
row,SMILES,IC50 [nM]
1,"CCCCCCCN(CCCCCSc1nc(-c2ccccc2)c(-c2ccccc2)[nH]1)C(=O)NC(C)C [Example 105, N-[5-(4,5-diphenyl-1H-imidazol-2-ylthio)pentyl]-N-heptyl-N'-(1-methylethyl)urea]",20
2,"CCCCCCCN(CCCCCSc1nc(-c2ccccc2)c(-c2ccccc2)[nH]1)C(=N)Nc1ccccc1 [Example 499, N-[5-(4,5-diphenyl-1H-imidazol-2-ylthio)pentyl]-N-heptyl-N'-phenylguanidin]",3160
3,"CCCCCCCN(CCSc1nc(-c2ccccc2)c(-c2ccccc2)[nH]1)C(=O)Nc1ccc(F)cc1F [Example 189, N'-(2,4-difluorophenyl)-N-[2-(4,5-diphenyl-1H-imidazol-2-ylthio)ethyl]-N-heptylurea]",70
4,"CCCCCCCN(CCCCCSc1nc(-c2ccccc2)c(-c2ccccc2)[nH]1)C(=O)Cc1ccc(-c2ccccc2)cc1 [Example 343, N-[5-(4,5-diphenyl-1H-imidazol-2-ylthio)pentyl]-N-heptyl[1,1'-biphenyl]-4-acetamide]",160
5,"CCCCCCCN(CCCCCSc1nc(-c2ccccc2)c(-c2ccccc2)[nH]1)C(=O)Cc1ccc(F)cc1F [Example 340, 2,4-difluoro-N-[(5-(4,5-diphenyl-1H-imidazol-2-ylthio)pentyl)]-N-heptylbenzeneacetamide]",25
6,CCCCCCCN(CCCCCSc1nc(-c2ccccc2)c(-c2ccccc2)[nH]1)C(=O)c1ccccc1 [Example 346],50
7,"CCCCCCCN(CCCCCSc1nc(-c2ccccc2)c(-c2ccccc2)[nH]1)C(=O)OC1CCCCC1 [Example 401, cyclohexyl [5-(4,5-diphenyl-1H-imidazol-2-ylthio)pentyl]heptylcarbamate]",50
8,CCCCCCCN(CCCCCSc1nc(-c2ccccc2)c(-c2ccccc2)[nH]1)C(=O)CC1CCCCC1 [Example 344],30
9,"CCCCCCCN(CCCCCSc1nc(-c2ccccc2)c(-c2ccccc2)[nH]1)C(=S)Nc1ccc(F)cc1F [Example 276, N'-(2,4-difluorophenyl]-N-[5-(4,5-diphenyl-1H-imidazol-2-ylthio)pentyl]-N-heptylthiourea]",58
10,"CCCCCCCN(CCCCCCc1nc(-c2ccccc2)c(-c2ccccc2)[nH]1)C(=O)Nc1ccc(F)cc1F [Example 339, N'-(2,4-difluorophenyl)-N-[6-(4,5-diphenyl-1H-imidazol-2-yl)hexyl]-N-heptylurea]",280
11,"CCCCCCCN(CCCCCS(=O)(=O)c1nc(-c2ccccc2)c(-c2ccccc2)[nH]1)C(=O)Nc1ccc(F)cc1F [Example 281, N'-(2,4-difluorophenyl)-N-[5-[(4,5-diphenyl-1H-imidazol-2-yl)sulfonyl]pentyl]-N-heptylurea]",16
12,CCCCCCCN(CCCCCSc1nc(-c2ccccc2)c(-c2ccccc2)[nH]1)C(=O)c1ccc(F)cc1F [Example 345],60
13,"CCCCCCCN(CCCCCCCCSc1nc(-c2ccccc2)c(-c2ccccc2)[nH]1)C(=O)Nc1ccc(F)cc1F [Example 3, N'-(2,4-difluorophenyl)-N-[8-(4,5-diphenyl-1H-imidazol-2-ylthio)octyl]-N-heptylurea]",8
14,"CCCCCCCN(CCCCC[S+]([O-])c1nc(-c2ccccc2)c(-c2ccccc2)[nH]1)C(=O)Nc1ccc(F)cc1F (stereo not drawn) [Example 278, N'-(2,4-difluorophenyl)-N-[5-(4,5-diphenyl-1H-imidazol-2-ylsulfinyl)pentyl]-N-heptylurea]",8
15,"CCCCCCCN(CCCCCSc1nc(-c2ccccc2)c(-c2ccccc2)[nH]1)C(=O)Oc1ccccc1 [Example 402, Phenyl [5-(4,5-diphenyl-1H-imidazol-2-ylthio)pentyl]heptylcarbamate]",20
16,"CCCCCCCCNC(=O)N(CCCCCSc1nc(-c2ccccc2)c(-c2ccccc2)[nH]1)c1ccc(F)cc1F [Example 206, N-(2,4-difluorophenyl)-N-[5-(4,5-diphenyl-1H-imidazol-2-ylthio)pentyl]-N'-octylurea]",40
17,CCCCCCCN(CCCCCSc1nc(-c2ccccc2)c(-c2ccccc2)[nH]1)C(=O)Nc1c(C(C)C)cccc1C(C)C [Example 266],230
18,CCCCCCCCNC(=O)N(CCCCCSc1nc(-c2ccccc2)c(-c2ccccc2)[nH]1)c1c(F)cc(F)cc1F [Example 208],20

# Continued by falling IC50, values first:
row,IC50 [nM],SMILES
1,3600,"CCCCCCCN(CCCCCSc1nc(-c2ccccc2)c(-c2ccccc2)n1C)C(=O)Nc1ccc(F)cc1F [Example 6, N'-(2,4-difluorophenyl)-N-heptyl-N-[5-(1-methyl-4,5-diphenyl-1H-imidazol-2-ylthio]pentyl]urea]"
2,3500,"CCCCCCCN(CCCCCNc1nc(-c2ccccc2)c(-c2ccccc2)[nH]1)C(=O)Nc1ccc(F)cc1F [Example 338, N' -(2,4-difluorophenyl)-N-[5-(4,5-diphenyl-1H-imidazol-2-ylamino)pentyl]-N-heptylurea]"
3,80,CC(C)NC(=O)N(CCCCCSc1nc(-c2ccccc2)c(-c2ccccc2)[nH]1)c1ccccc1 [Example 261]
4,70,"CCCCCCCN(CCCCCSc1nc(-c2ccccc2)c(-c2ccccc2)[nH]1)C(=O)Nc1ccc(-c2ccccc2)cc1 [Example 192, N'-[(1,1'-biphenyl)-4-yl]-N-[5-(4,5-diphenyl-b 1H-imidazol-2-ylthio)pentyl]-N-heptylurea]"
5,40,CC(C)NC(=O)N(CCCCCSc1nc(-c2ccccc2)c(-c2ccccc2)[nH]1)c1ccc(F)cc1F [Example 263]
6,30,"CCCCCCCN(CCCCCSc1nc(-c2ccccc2)c(-c2ccccc2)[nH]1)C(=S)Nc1c(F)cc(F)cc1F [Example 298, N-[5-(4,5-diphenyl-1H-imidazol-2-ylthio)pentyl]N-heptyl-N'-(2,4,6-trifluorophenyl)thiourea]"
7,30,CCCN(CCCCCSc1nc(-c2ccccc2)c(-c2ccccc2)[nH]1)C(=O)Nc1ccc(F)cc1F [Example 190]
8,10,"CCCCCCCN(CCCCCSc1nc(-c2ccccc2)c(-c2ccccc2)[nH]1)C(=O)NC1CCCCC1 [Example 94, N'-cyclohexyl-N-[5-(4,5-diphenyl-1H-imidazol-2-ylthio)pentyl]-N-heptylurea]"
9,10,"CCCCCCCN(CCCCCSc1nc(-c2ccccc2)c(-c2ccccc2)[nH]1)C(=O)NCCC [Example 8, N-[5-(4,5-diphenyl-1H-imidazol-2-ylthio)pentyl]-N-heptyl-N'-propylurea]"
